# Laboratory results: patent US11807693B2 (priority 2014, dated 2023)
# Starred links: 1 amine or outer side, 2 acyl side, 3 side chain; linkers in the order of their positions; H or OH if unused. Non-standard residues stand in square brackets, D forms with d. Residues, ends and D or L forms follow the SMILES beside them. *: point of attachment. dBip = N[C@H](Cc1ccc(-c2ccccc2)cc1)C(=O)O; Phe(4-Cl) = N[C@@H](Cc1ccc(Cl)cc1)C(=O)O; γGlu = O=C(O)[C@H](CCC(=O)[*:2])N[*:1]; 2Nal = N[C@@H](Cc1ccc2ccccc2c1)C(=O)O; NMeR = CN[C@@H](CCCNC(=N)N)C(=O)O; Tridecanoyl = CCCCCCCCCCCCC(=O)*; hArg = N=C(N)NCCCC[C@H](N)C(=O)O; Cha = N[C@@H](CC1CCCCC1)C(=O)O; αMeL = CC(C)C[C@](C)(N)C(=O)O; β3hV = CC(C)[C@H](N)CC(=O)O; Nle = CCCC[C@H](N)C(=O)O; AEEA = NCCOCCOCC(=O)O; βAla = NCCC(=O)O
# Assays:
# [1] = In vitro stability in rat plasma; assay type: in vitro ADME
# Experimental: (§1) Apelin peptides were spiked into rat plasma, liver homogenate, and kidney homogenate, which were obtained from commercial sources, to a final concentration of 5 μM. The samples were then incubated at 37° C. over a period of 4 hr. […] In a typical experiment, an aliquot of 100 μL of sample was taken from the incubation vial, followed by addition of 300 μL of MeOH containing internal standard. The quenched sample was centrifuged at 5500 g for 15 min after 15 min vortex in room temperature. The supernatant was then analyzed by high resolution LC-MS. […] In vitro plasma, […], and kidney stability results are shown below in Table 14.
# [2] = In vitro stability in rat liver homogenate; assay type: in vitro ADME; details: tissue homogenate
# Experimental: as §1
SMILES,"remaining at 4 h, 5 μM [1] [%]","remaining at 4 h, 5 μM [2] [%]"
CCCCCCCCCCCCC(=O)N[C@@H](CCC(=O)NCCOCCOCC(=O)NCCOCCOCC(=O)N[C@@H](CCC(N)=O)C(=O)N[C@@H](CCCNC(=N)N)C(=O)N1CCC[C@H]1C(=O)N(C)[C@@H](CCCNC(=N)N)C(=O)N[C@@H](CC(C)C)C(=O)NCCC(=O)N[C@@H](Cc1c[nH]cn1)C(=O)N[C@@H](CCCCN)C(=O)NCC(=O)N1CCC[C@H]1C(=O)N[C@@H](CCCC)C(=O)N1CCC[C@H]1C(=O)N[C@@H](Cc1ccc(Cl)cc1)C(=O)O)C(=O)O [compound 464] ({Tridecanoyl-γGlu-AEEA-AEEA}-QRP[NMeR]L[βAla]HKGP[Nle]P[Phe(4-Cl)]-OH),21,< 1
CCCCCCCCCCCCC(=O)N[C@@H](CCC(=O)NCCOCCOCC(=O)NCCOCCOCC(=O)N[C@H](CCC(N)=O)C(=O)N[C@@H](CCCNC(=N)N)C(=O)N1CCC[C@H]1C(=O)N(C)[C@@H](CCCNC(=N)N)C(=O)N[C@@](C)(CC(C)C)C(=O)N[C@@H](CO)C(=O)N[C@@H](Cc1c[nH]cn1)C(=O)N[C@@H](CCCCN)C(=O)NCC(=O)N1CCCC[C@H]1C(=O)N[C@@H](CCCC)C(=O)N1CCC[C@@]1(C)C(=O)N[C@@H](Cc1ccc(Cl)cc1)C(=O)O)C(=O)O [compound 555],> 90,< 1
CCCC[C@H](NC(=O)[C@@H]1CCCN1C(=O)CNC(=O)[C@H](CCCCN)NC(=O)[C@H](Cc1c[nH]cn1)NC(=O)[C@H](CO)NC(=O)[C@H](CC(C)C)NC(=O)[C@H](CCCNC(=N)N)NC(=O)[C@@H]1CCCN1C(=O)[C@H](CCCNC(=N)N)NC(=O)[C@H](CCC(N)=O)NC(=O)[C@H](CCCNC(=N)N)NC(C)=O)C(=O)N1CCC[C@H]1C(=O)N[C@H](Cc1ccc(-c2ccccc2)cc1)C(=O)O [compound 62] (Ac-RQRPRLSHKGP[Nle]P[dBip]-OH),6.3,< 1
CCCCCCCCCCCCC(=O)N[C@@H](CCC(=O)NCCOCCOCC(=O)NCCOCCOCC(=O)N[C@@H](CCC(N)=O)C(=O)N[C@@H](CCCNC(=N)N)C(=O)N1CCC[C@H]1C(=O)N(C)[C@@H](CCCNC(=N)N)C(=O)N[C@@H](CC(C)C)C(=O)N[C@@H](CO)C(=O)N[C@@H](Cc1c[nH]cn1)C(=O)N[C@@H](CCCCN)C(=O)NCC(=O)N1CCC[C@H]1C(=O)N[C@@H](CCCC)C(=O)N1CCC[C@H]1CC(=O)N[C@@H](Cc1ccc(Cl)cc1)C(=O)O)C(=O)O [compound 426],33,< 1
CCCCCCCCCCCCC(=O)N[C@@H](CCC(=O)NCCOCCOCC(=O)NCCOCCOCC(=O)N[C@@H](CCC(N)=O)C(=O)N[C@@H](CCCCNC(=N)N)C(=O)N1CCC[C@H]1C(=O)N[C@@H](CCCCNC(=N)N)C(=O)N[C@@H](CC(C)C)C(=O)N[C@@H](CO)C(=O)N[C@@H](Cc1c[nH]cn1)C(=O)N[C@@H](CCCCN)C(=O)NCC(=O)N1CCC[C@H]1C(=O)N[C@@H](CCCC)C(=O)N1CCC[C@H]1C(=O)N[C@@H](Cc1ccc(Cl)cc1)C(=O)O)C(=O)O [compound 357],56,0
CCCC[C@H](NC(=O)[C@@H]1CCCN1C(=O)CNC(=O)[C@H](CCCCN)NC(=O)[C@H](Cc1c[nH]cn1)NC(=O)[C@H](CO)NC(=O)[C@H](CC(C)C)NC(=O)[C@H](CCCNC(=N)N)N(C)C(=O)[C@@H]1CCCN1C(=O)[C@H](CCCNC(=N)N)NC(=O)[C@H](CCC(N)=O)NC(=O)COCCOCCNC(=O)COCCOCCNC(=O)CC[C@H](NC(=O)CCCCCCC(=O)O)C(=O)O)C(=O)N1CCC[C@H]1C(=O)N[C@@H](Cc1ccc(Cl)cc1)C(=O)O [compound 508],< 1,< 1
CCCCCCCCCCCCC(=O)N[C@@H](CCC(=O)NCCOCCOCC(=O)NCCOCCOCC(=O)N[C@@H](CCC(N)=O)C(=O)N[C@@H](CCCCNC(=N)N)C(=O)N1CCC[C@H]1C(=O)N(C)[C@@H](CCCNC(=N)N)C(=O)N[C@H](CC(=O)N[C@@H](CO)C(=O)N[C@@H](Cc1c[nH]cn1)C(=O)N[C@@H](CCCCN)C(=O)NCC(=O)N1CCC[C@H]1C(=O)N[C@@H](CCCC)C(=O)N1CCC[C@H]1C(=O)N[C@@H](Cc1ccc(Cl)cc1)C(=O)O)C(C)C)C(=O)O [compound 383] ({Tridecanoyl-γGlu-AEEA-AEEA}-Q[hArg]P[NMeR][β3hV]SHKGP[Nle]P[Phe(4-Cl)]-OH),31,< 1
CCCCCCCCCCCCCCC(=O)N[C@@H](CCC(=O)NCCOCCOCC(=O)NCCOCCOCC(=O)N[C@@H](CCC(N)=O)C(=O)N[C@@H](CCCNC(=N)N)C(=O)N1CCC[C@H]1C(=O)N(C)[C@@H](CCCNC(=N)N)C(=O)N[C@@H](CC(C)C)C(=O)N[C@@H](CO)C(=O)N[C@@H](Cc1c[nH]cn1)C(=O)N[C@@H](CCCCN)C(=O)NCC(=O)N1CCC[C@H]1C(=O)N[C@@H](CCCC)C(=O)N1CCC[C@H]1C(=O)N[C@@H](Cc1ccc(Cl)cc1)C(=O)O)C(=O)O [compound 495],75,< 1
CCCCCCCCCCCCC(=O)N[C@@H](CCC(=O)NCCOCCOCC(=O)NCCOCCOCC(=O)N[C@@H](CCC(N)=O)C(=O)N(C)[C@@H](CCCCNC(=N)N)C(=O)N1CCC[C@H]1C(=O)N(C)[C@@H](CCCNC(=N)N)C(=O)N[C@@](C)(CC(C)C)C(=O)N[C@@H](CO)C(=O)N[C@@H](Cc1c[nH]cn1)C(=O)N[C@@H](CCCCN)C(=O)NCC(=O)N1CCC[C@H]1C(=O)N[C@@H](CCCC)C(=O)N1CCC[C@H]1C(=O)N[C@@H](Cc1ccc(Cl)cc1)C(=O)O)C(=O)O [compound 484],79,< 1
CCCCCCCCCCCCC(=O)N[C@@H](CCC(=O)NCCOCCOCC(=O)NCCOCCOCC(=O)N[C@@H](CCC(N)=O)C(=O)N[C@@H](CCCNC(=N)N)C(=O)N1CCC[C@H]1C(=O)N(C)[C@@H](CCCNC(=N)N)C(=O)N[C@@H](CC(C)C)C(=O)N[C@@H](CO)C(=O)N[C@@H](Cc1c[nH]cn1)C(=O)N[C@@H](CCCCN)C(=O)NCC(=O)N1CCC[C@H]1C(=O)N[C@@H](CCCC)C(=O)N[C@@H](Cc1ccc(Cl)cc1)C(=O)O)C(=O)O [compound 402] ({Tridecanoyl-γGlu-AEEA-AEEA}-QRP[NMeR]LSHKGP[Nle][Phe(4-Cl)]-OH),87,< 1
CSCC[C@H](NC(=O)[C@@H](N)CS)C(=O)N1CCC[C@H]1C(=O)N[C@@H](CC(C)C)C(=O)N[C@@H](Cc1cnc[nH]1)C(=O)N[C@@H](CO)C(=O)N[C@@H](CCCNC(=N)N)C(=O)N[C@H](C(=O)N1CCC[C@H]1C(=O)N[C@@H](Cc1ccccc1)C(=O)N1CCC[C@H]1C(=O)O)C(C)C [compound 13],7,< 1
CCCCCCCCCCCCC(=O)N[C@@H](CCC(=O)NCCOCCOCC(=O)NCCOCCOCC(=O)N[C@@H](CCC(N)=O)C(=O)N[C@@H](CCCNC(=N)N)C(=O)N1CCC[C@@]1(C)C(=O)N[C@@H](CCCCNC(=N)N)C(=O)N[C@@](C)(CC(C)C)C(=O)N[C@@H](CO)C(=O)N[C@@H](Cc1c[nH]cn1)C(=O)N[C@@H](CCCCN)C(=O)NCC(=O)N1CCC[C@H]1C(=O)N[C@@H](CCCC)C(=O)N1CCC[C@H]1C(=O)N[C@@H](Cc1ccc(Cl)cc1)C(=O)O)C(=O)O [compound 482],62,< 1
CCCCCCCCCCCCC(=O)N[C@@H](CCC(=O)NCCOCCOCC(=O)NCCOCCOCC(=O)N[C@@H](CCC(N)=O)C(=O)N[C@@H](CCCCNC(=N)N)C(=O)N1CCC[C@H]1C(=O)N(C)[C@@H](CCCCNC(=N)N)C(=O)N[C@@H](CC(C)C)C(=O)N[C@@H](CO)C(=O)N[C@@H](Cc1c[nH]cn1)C(=O)N[C@@H](CCCCN)C(=O)NCC(=O)N1CCC[C@H]1C(=O)N[C@@H](CCCC)C(=O)N1CCC[C@H]1C(=O)N[C@@H](Cc1ccc(Cl)cc1)C(=O)O)C(=O)O [compound 483],37,< 1
CCCCCCCCCCCCC(=O)N[C@@H](CCC(=O)NCCOCCOCC(=O)NCCOCCOCC(=O)N[C@@H](CCC(N)=O)C(=O)N[C@@H](CCCNC(=N)N)C(=O)N[C@@H](CCC(=O)O)C(=O)N(C)[C@@H](CCCNC(=N)N)C(=O)N[C@@H](CC(C)C)C(=O)N[C@@H](CO)C(=O)N[C@@H](Cc1c[nH]cn1)C(=O)N[C@@H](CCCCN)C(=O)NCC(=O)N1CCC[C@H]1C(=O)N[C@@H](CCCC)C(=O)N1CCC[C@H]1C(=O)N[C@@H](Cc1ccc(Cl)cc1)C(=O)O)C(=O)O [compound 476],40,< 1
CCCC[C@H](NC(=O)[C@@H]1CCCN1C(=O)CNC(=O)[C@H](CCCCN)NC(=O)[C@H](Cc1c[nH]cn1)NC(=O)[C@H](CO)NC(=O)[C@H](CC1CCCCC1)NC(=O)[C@H](CCCNC(=N)N)N(C)C(=O)[C@@H]1CCCN1C(=O)[C@H](CCCNC(=N)N)NC(=O)[C@H](CCC(N)=O)NC(=O)[C@H](CCCNC(=N)N)NC(C)=O)C(=O)N1CCC[C@H]1C(=O)N[C@@H](Cc1ccc(Cl)cc1)C(=O)O [compound 66] (Ac-RQRP[NMeR][Cha]SHKGP[Nle]P[Phe(4-Cl)]-OH),2.4,–
CCCCCCCCCCCCC(=O)N[C@@H](CCC(=O)NCCOCCOCC(=O)NCCOCCOCC(=O)N[C@@H](CCC(N)=O)C(=O)N[C@@H](CCCCNC(=N)N)C(=O)N1CCC[C@H]1C(=O)N(C)[C@@H](CCCNC(=N)N)C(=O)N[C@@](C)(CC(C)C)C(=O)N[C@@H](CO)C(=O)N[C@@H](Cc1c[nH]cn1)C(=O)N[C@@H](CCCCN)C(=O)NCC(=O)N1CCC[C@H]1C(=O)N[C@@H](CCCC)C(=O)N1CCC[C@H]1C(=O)N[C@@H](Cc1ccc2ccccc2c1)C(=O)O)C(=O)O [compound 473] ({Tridecanoyl-γGlu-AEEA-AEEA}-Q[hArg]P[NMeR][αMeL]SHKGP[Nle]P[2Nal]-OH),82,< 1
CCCCCCCCCCCCC(=O)N[C@@H](CCC(=O)NCCOCCOCC(=O)NCCOCCOCC(=O)N[C@@H](CCC(N)=O)C(=O)N[C@@H](CCCCNC(=N)N)C(=O)N1CCC[C@H]1C(=O)N(C)[C@@H](CCCNC(=N)N)C(=O)N[C@@H](CC(C)C)C(=O)N[C@@H](CO)C(=O)N[C@@H](Cc1c[nH]cn1)C(=O)N[C@@H](CCCCN)C(=O)NCC(=O)N1CCC[C@H]1C(=O)N[C@@H](CCCC)C(=O)N1CCC[C@H]1C(=O)N[C@@H](Cc1ccc(Cl)cc1)C(=O)O)C(=O)O [compound 353],20,0
